Measurements taken from US9096607B2, “Tumor necrosis factor inhibitors” (THE TRUSTEES OF THE UNIVERSITY OF PENNSYLVANIA, priority 2005, dated 2015).

Test system: L929 cells
Assay: Inhibition of TNF-α mediated cytolysis of L929 cells (Alamar Blue)
Assay type: cell-based, murine
Conditions: TNF-α 100 pg/mL, actinomycin D 1 μM; for % Inhibition at: 25 μM: 25 μM compound; for % Inhibition at: 50 μM: 50 μM compound; for % Inhibition at: 100μM: 100 μM compound
From the text: L929 cultured murine fibroblasts cells were obtained from American Type Culture Collection (Manassas, Va.). Tissue culture reagents were from Invitrogen or Sigma-Aldrich. TNF-α and Actinomycin D were from Sigma-Aldrich. Alamar Blue reagents (Cell Titer Blue™) were from Promega. The test compounds I-1 through I-16, II-1 through II-8, and III-1 through III-3 were obtained commercially or can be prepared as described above. The test compounds were individually dissolved in dimethylsulfoxide (DMSO). The test compounds were maintained at 4° C. when not in use. Other reagents were high-purity (ACS-grade, HPLC-grade, MilliQ water, or similar).
Stock L929 cells were grown on tissue culture plastic in complete DMEM (Dulbecco's Modified Eagles Medium) supplemented with 10% FBS (Fetal Bovine Serum), NEAA (non-essential amino acids), and glutamine. L929 cells were plated using the same medium on 96-well tissue culture plates at high density (i.e., ˜4×10^4 cells/well, or similar) before use.
Approximately 20 h after plating, the L929 cells on 96-well plates were re-fed with fresh medium containing one of the test compounds in a concentration selected from 100 μM, 50 μM, 25 μM as a “pre-treatment.” Approximately 30-60 min later, samples were treated with an additional amount of test compound (in the same amount and at the same concentration as the pre-treatment) prepared in medium containing TNF-α (200 pg/mL), and actinomycin D (2 μM). The final concentration of TNF-α in assays was 100 pg/mL. The final concentration of actinomycin D in assays was 1 μM. The plates were incubated for an additional 22-23 h, the Alamar Blue assay reagents were added and metabolic cell viability was determined from reduction of a fluorogenic Alamar Blue derivative.
The temperature was maintained at 37° C. with 5% CO2 and humidified. The metabolic viability was measured 1-2 h after addition of assay reagents/Alamar Blue derivative using TECAN SaFire fluorescence plate reader (Tecan Group Ltd., Maennedorf, Switzerland).
Inhibition of TNF-α induced cytolysis by a test compound (X) at a given concentration (y) was calculated as follows: […]

O=[N+]([O-])c1cccc(NN=C(c2ccc(O)cc2)c2ccc(O)cc2)c1 [III-1, N-(4,4′-Dihydroxybenzhydrylidene)-N′-(3-nitrophenyl)hydrazine]
% Inhibition at: 25 μM: 33.2% | % Inhibition at: 50 μM: 42.5% | % Inhibition at: 100μM: −20.3%

O=C1OC2(c3ccc(Cl)cc3Oc3cc(Cl)ccc32)c2ccccc21 [II-1, 3′,6′-Dichlorofluorescein]
% Inhibition at: 25 μM: 20.7% | % Inhibition at: 50 μM: 8.8% | % Inhibition at: 100μM: 7.6%

CN(C)c1ccc(C(O)(c2ccccc2)c2ccc(N(C)C)cc2)cc1 [Compound I-17, 1,1-Bis(4-dimethylaminophenyl)-1-phenyl-methanol]
% Inhibition at: 25 μM: −16.0% | % Inhibition at: 50 μM: −17.0% | % Inhibition at: 100μM: −17.9%

CC(c1ccc(OC(=O)CCl)cc1)(c1ccc(OC(=O)CCl)cc1)c1ccc(OC(=O)CCl)cc1 [Compound I-13, 1,1,1-Tris-(4-chloroacetoxyphenyl)ethane]
% Inhibition at: 25 μM: 35.4% | % Inhibition at: 50 μM: 72.2% | % Inhibition at: 100μM: 38.9%

COc1ccc(C(O)(c2ccc(OC)cc2)c2ccc(OC)cc2)cc1 [Compound I-6, 1,1,1-Tris-(4-methoxyphenyl)methanol]
% Inhibition at: 25 μM: 12.0% | % Inhibition at: 50 μM: 25.9% | % Inhibition at: 100μM: 32.5%

CC(=O)Oc1ccc(C(C)(c2ccccc2)c2ccc(OC(C)=O)cc2)cc1 [Compound I-10, 1,1-Bis-(4-acetoxyphenyl)-1-phenyl-ethane]
% Inhibition at: 25 μM: 20.7% | % Inhibition at: 50 μM: 46.6% | % Inhibition at: 100μM: 71.9%

COc1ccc(C(C(=O)O)(c2ccc(OC)cc2)c2ccc(OC)cc2)cc1 [Compound I-8, 1,1,1-Tris-(4-methoxyphenyl)acetic acid]
% Inhibition at: 25 μM: 2.7% | % Inhibition at: 50 μM: 6.9% | % Inhibition at: 100μM: 18.4%

CC(=O)Oc1ccc2c(c1)Oc1cc(OC(C)=O)ccc1C21OC(=O)c2ccccc21 [II-2, 3′,6′-Fluorescein diacetate]
% Inhibition at: 25 μM: 25.4% | % Inhibition at: 50 μM: 23.5% | % Inhibition at: 100μM: 26.0%

O=C(O)c1ccccc1C1c2ccc(Cl)cc2Oc2cc(Cl)ccc21 [II-3, 2-(3,6-Dichloro-9H-xanthen-9-yl)-benzoic acid]
% Inhibition at: 25 μM: 36.2% | % Inhibition at: 50 μM: 45.6% | % Inhibition at: 100μM: 52.4%

NC(=O)c1ccccc1C1c2ccc(Cl)cc2Oc2cc(Cl)ccc21 [II-6, 2-(3,6-Dichloro-9H-xanthen-9-yl)-benzamide]
% Inhibition at: 25 μM: 43.3% | % Inhibition at: 50 μM: −6.1% | % Inhibition at: 100μM: −21.7%

O=C(O)c1ccccc1C1c2ccc(O)cc2Oc2cc(O)ccc21 [II-4, 2-(3,6-Dihydroxy-9H-xanthen-9-yl)-benzoic acid]
% Inhibition at: 25 μM: 33.3% | % Inhibition at: 50 μM: 23.6% | % Inhibition at: 100μM: 23.2%

CC(c1ccc(OCC(=O)[O-])cc1)(c1ccc(OCC(=O)[O-])cc1)c1ccc(OCC(=O)[O-])cc1.[Na+].[Na+].[Na+] [Compound I-3, 1,1,1-Tris-(4-carboxymethoxyphenyl)ethane, trisodium salt]
% Inhibition at: 25 μM: 23.0% | % Inhibition at: 50 μM: 17.7% | % Inhibition at: 100μM: 12.4%

COC(=O)COc1ccc(C(C)(c2ccc(OCC(=O)OC)cc2)c2ccc(OC(C)=O)cc2)cc1 [Compound I-14, 1-(4-Acetoxy-phenyl)-1,1-bis-(4-methoxycarbonylmethoxyphenyl)ethane]
% Inhibition at: 25 μM: 13.4% | % Inhibition at: 50 μM: 30.2% | % Inhibition at: 100μM: 45.3%

CC(c1ccc(O)cc1)(c1ccc(OCC(=O)O)cc1)c1ccc(OCC(=O)O)cc1.[Na+].[Na+].[Na+] [Compound I-12, 1,1-Bis-(4-carboxymethoxy-phenyl)-1-(4-hydroxyphenyl)ethane, trisodium salt]
% Inhibition at: 25 μM: 14.5% | % Inhibition at: 50 μM: 16.9% | % Inhibition at: 100μM: 14.2%
